± gives the expanded uncertainty stated by the source.
Test: xn = mol fraction of the nth substance listed
Conditions: 101 kPa, Liquid; for kinematic viscosity: Capillary tube (Ostwald / Ubbelohde) method

CCCCC(=O)OC [methyl pentanoate] + CCCCCCO
kinematic viscosity (293.15 K, x1 = 0.085): 4.728e-06 ± 3.3e-08 m2/s | kinematic viscosity (293.15 K, x1 = 0.1145): 4.25e-06 ± 3e-08 m2/s | kinematic viscosity (293.15 K, x1 = 0.1854): 3.367e-06 ± 2.4e-08 m2/s | kinematic viscosity (293.15 K, x1 = 0.2862): 2.527e-06 ± 1.8e-08 m2/s | kinematic viscosity (293.15 K, x1 = 0.4123): 1.87e-06 ± 1.4e-08 m2/s | kinematic viscosity (293.15 K, x1 = 0.5087): 1.533e-06 ± 1.2e-08 m2/s | kinematic viscosity (293.15 K, x1 = 0.6157): 1.256e-06 ± 1e-08 m2/s | kinematic viscosity (293.15 K, x1 = 0.6835): 1.129e-06 ± 9e-09 m2/s | kinematic viscosity (293.15 K, x1 = 0.7846): 9.82e-07 ± 8e-09 m2/s | kinematic viscosity (293.15 K, x1 = 0.9071): 8.57e-07 ± 7e-09 m2/s | kinematic viscosity (293.15 K, x1 = 0.9274): 8.42e-07 ± 7e-09 m2/s | kinematic viscosity (293.15 K, x1 = 1): 8e-07 ± 7e-09 m2/s | mass density (293.15 K, x1 = 0.085): 824.62 ± 0.3 kg/m3 | mass density (293.15 K, x1 = 0.1145): 826.65 ± 0.3 kg/m3 | mass density (293.15 K, x1 = 0.1854): 831.55 ± 0.31 kg/m3 | mass density (293.15 K, x1 = 0.2862): 838.56 ± 0.33 kg/m3 | mass density (293.15 K, x1 = 0.4123): 847.4 ± 0.35 kg/m3 | mass density (293.15 K, x1 = 0.5087): 854.22 ± 0.37 kg/m3 | mass density (293.15 K, x1 = 0.6157): 861.84 ± 0.39 kg/m3 | mass density (293.15 K, x1 = 0.6835): 866.67 ± 0.4 kg/m3 | mass density (293.15 K, x1 = 0.7846): 873.96 ± 0.43 kg/m3 | mass density (293.15 K, x1 = 0.9071): 882.86 ± 0.45 kg/m3 | mass density (293.15 K, x1 = 0.9274): 884.35 ± 0.46 kg/m3 | mass density (293.15 K, x1 = 1): 889.75 ± 0.47 kg/m3 | kinematic viscosity (303.15 K, x1 = 0.0771): 3.701e-06 ± 2.6e-08 m2/s | kinematic viscosity (303.15 K, x1 = 0.1183): 3.251e-06 ± 2.3e-08 m2/s | kinematic viscosity (303.15 K, x1 = 0.192): 2.619e-06 ± 1.9e-08 m2/s | kinematic viscosity (303.15 K, x1 = 0.2983): 1.994e-06 ± 1.5e-08 m2/s | kinematic viscosity (303.15 K, x1 = 0.4502): 1.436e-06 ± 1.1e-08 m2/s | kinematic viscosity (303.15 K, x1 = 0.4593): 1.412e-06 ± 1.1e-08 m2/s | kinematic viscosity (303.15 K, x1 = 0.5089): 1.285e-06 ± 1e-08 m2/s | kinematic viscosity (303.15 K, x1 = 0.613): 1.085e-06 ± 9e-09 m2/s | kinematic viscosity (303.15 K, x1 = 0.691): 9.67e-07 ± 8e-09 m2/s | kinematic viscosity (303.15 K, x1 = 0.7873): 8.55e-07 ± 7e-09 m2/s | kinematic viscosity (303.15 K, x1 = 0.8796): 7.75e-07 ± 7e-09 m2/s | kinematic viscosity (303.15 K, x1 = 0.9346): 7.39e-07 ± 6e-09 m2/s | kinematic viscosity (303.15 K, x1 = 1): 7.08e-07 ± 6e-09 m2/s | mass density (303.15 K, x1 = 0.0771): 816.54 ± 0.3 kg/m3 | mass density (303.15 K, x1 = 0.1183): 819.23 ± 0.31 kg/m3 | mass density (303.15 K, x1 = 0.192): 824.09 ± 0.32 kg/m3 | mass density (303.15 K, x1 = 0.2983): 831.16 ± 0.33 kg/m3 | mass density (303.15 K, x1 = 0.4502): 841.37 ± 0.36 kg/m3 | mass density (303.15 K, x1 = 0.4593): 841.99 ± 0.36 kg/m3 | mass density (303.15 K, x1 = 0.5089): 845.34 ± 0.37 kg/m3 | mass density (303.15 K, x1 = 0.613): 852.44 ± 0.39 kg/m3 | mass density (303.15 K, x1 = 0.691): 857.8 ± 0.4 kg/m3 | mass density (303.15 K, x1 = 0.7873): 864.46 ± 0.42 kg/m3 | mass density (303.15 K, x1 = 0.8796): 870.9 ± 0.44 kg/m3 | mass density (303.15 K, x1 = 0.9346): 874.8 ± 0.46 kg/m3 | mass density (303.15 K, x1 = 1): 879.51 ± 0.47 kg/m3 | kinematic viscosity (313.15 K, x1 = 0.0802): 2.858e-06 ± 2e-08 m2/s | kinematic viscosity (313.15 K, x1 = 0.1168): 2.58e-06 ± 1.8e-08 m2/s | kinematic viscosity (313.15 K, x1 = 0.1965): 2.082e-06 ± 1.5e-08 m2/s | kinematic viscosity (313.15 K, x1 = 0.2939): 1.644e-06 ± 1.2e-08 m2/s | kinematic viscosity (313.15 K, x1 = 0.3995): 1.321e-06 ± 1e-08 m2/s | kinematic viscosity (313.15 K, x1 = 0.5141): 1.083e-06 ± 9e-09 m2/s | kinematic viscosity (313.15 K, x1 = 0.548): 1.028e-06 ± 8e-09 m2/s | kinematic viscosity (313.15 K, x1 = 0.5971): 9.61e-07 ± 8e-09 m2/s | kinematic viscosity (313.15 K, x1 = 0.6912): 8.44e-07 ± 7e-09 m2/s | kinematic viscosity (313.15 K, x1 = 0.7876): 7.52e-07 ± 6e-09 m2/s | kinematic viscosity (313.15 K, x1 = 0.9035): 6.75e-07 ± 6e-09 m2/s | kinematic viscosity (313.15 K, x1 = 0.9358): 6.58e-07 ± 6e-09 m2/s | kinematic viscosity (313.15 K, x1 = 1): 6.34e-07 ± 6e-09 m2/s | mass density (313.15 K, x1 = 0.0802): 809.21 ± 0.3 kg/m3 | mass density (313.15 K, x1 = 0.1168): 811.47 ± 0.31 kg/m3 | mass density (313.15 K, x1 = 0.1965): 816.46 ± 0.32 kg/m3 | mass density (313.15 K, x1 = 0.2939): 822.62 ± 0.33 kg/m3 | mass density (313.15 K, x1 = 0.3995): 829.39 ± 0.35 kg/m3 | mass density (313.15 K, x1 = 0.5141): 836.8 ± 0.37 kg/m3 | mass density (313.15 K, x1 = 0.548): 838.99 ± 0.38 kg/m3 | mass density (313.15 K, x1 = 0.5971): 842.2 ± 0.39 kg/m3 | mass density (313.15 K, x1 = 0.6912): 848.37 ± 0.4 kg/m3 | mass density (313.15 K, x1 = 0.7876): 854.78 ± 0.42 kg/m3 | mass density (313.15 K, x1 = 0.9035): 862.6 ± 0.45 kg/m3 | mass density (313.15 K, x1 = 0.9358): 864.8 ± 0.45 kg/m3 | mass density (313.15 K, x1 = 1): 869.32 ± 0.47 kg/m3
